Laboratory results: US8354265B2, “Chemicals promoting the growth of N-acylhomoserine lactone-degrading bacteria” (Centre National de la Recherche Scientifique, priority 2007, dated 2013)

Tests used:
bacterial consortia = assay: Inactivation of C6-HSL and OC8-HSL by mannitol, 6CL, GCL and HTN consortia; assay type: cell-based
Text: (§1) The Mannitol-, 6CL-, GCL-, and HTN-consortia were compared for their capacity to inactivated OC8-HSL, the major NAHL produced by the plant pathogen Erwinia carotovora subsp. atroseptica 6276, as well as for their biocontrol activity against this pathogen in potato maceration assay.

[1] = test system: NAHL-degrading bacteria in the nutritive solution; assay: Ratio of NAHL-degrading bacteria in unplanted batches of nutritive solution; assay type: cell-based; conditions: for percentage of NAHL-degrading bacteria in the nutritive solution: without plants
Method: (§2) The non sterile batches (40×60×8 cm) contained 13 L of the nutritive solution Hydrobloom (Cellmax, UK) with Nitrogen at 0.80 g/L, Phosphore at 0.56 g/L and Potassium at 1.48 g/L as major components. The solution was diluted from a concentrated stock solution (×250) with non sterile water from the public water system. One hundred plants of Solanum tuberosum var. Allians, which were recovered from cultures performed under sterile conditions, were placed into holes (3 cm space to each other) of batch covers. Planted batches were placed in the greenhouse (Comité Nord Plants de Pomme de Terre, Bretteville-du-Grand-Caux) under natural light at 10-15° C. (night) and 25-30° C. (day). […] An untreated batch was used as a control. One gram of roots (fresh weight) was resuspended in 10 mL of sterile MgSO4 10 mM, diluted and spread on TSA and King B plates to isolate total cultivable bacteria and fluorescent Pseudomonas, respectively. Three samples were analyzed from each batch at each time D0, D14 and D28; from each sample, thirty isolates from TSA plates and thirty fluorescent isolates from King B plates were individually tested from production and inactivation of NAHL signal.
(§3) Bacterial isolates grown in 96-microwell plates were individually tested from production of NAHL with the A. tumefaciens biosensor NT1 (pZNLR4) and the inactivation of the C6-HSL signal, as described previously (d'Angelo-Picard et al. 2004).
Allians was evaluated. The plants were cultivated in vitro under sterile conditions, then placed into batches in a greenhouse at Bretteville-du-Grand-Caux (France) in a non-sterile environment. Especially, a non-sterile nutritive solution was used and served as a source of naturally occurring bacteria. […] The ratio of NAHL-degrading bacteria in the nutritive solution was evaluated before the treatment and 14-day later. This percentage increased from 10±2 to 30±2 in the case of the 6CL-treated batch and from 10±2 to 70±2 in the GCL-treated batch. From the 6CL- and GCL-treated batches, 10 NAHL-degrading bacteria were identified by their rrs sequence: 9 belonged to the Delftia genus, the other one to the Rhodococcus genus.

[2] = test system: NAHL-degrading rhizobacteria of potato rhizosphere; assay: Preliminary experiment in planted hydroponic batches: level and diversity of NAHL-degrading rhizobacteria (Table 1); assay type: in vivo, Solanum tuberosum var. Allians
Method: as §2, §3
At least 400 bp were submitted to the NCBI database.

[3] = test system: bacteria recovered from the consortia; assay: NAHL production and inactivation by isolates recovered from the consortia, with rrs identification; assay type: cell-based
young plants = conditions: in vivo
[4] = test system: NAHL-degrading and NAHL-producing bacteria of potato rhizosphere; assay: Two independent analyses of 6CL and GCL treatments on planted batches (FIG. 7); assay type: in vivo, Solanum tuberosum var. Allians
Text: FIG. 7: Percentage of NAHL-degrading and NAHL-producing strains in potato rhizosphere. […] An untreated batch was used as a control in the two independent sets of experiments. The mean of three replicates is shown. Statistically different values (Student t test; 0.05) are noted by different letters.
as §2, §3
An untreated batch was used as a control.

[5] = test system: bacterial consortia from unplanted soil; assay: C6-HSL inactivation by bacterial consortia enriched from unplanted soil on the compound as sole carbon source; assay type: cell-based; conditions: soil and rhizospheric samples; among 25 assayed molecules
[6] = test system: NAHL-degrading rhizobacteria; assay: Diversity of NAHL-degrading rhizobacteria after 6CL and GCL treatments, rrs sequencing (Table 2); assay type: in vivo, Solanum tuberosum; conditions: D14 and D28; 0.1 mL/L
Method: as §2
The 5′-end of the rrs gene was amplified with primers pA (5′-[…]) (SEQ ID NO:1) and 518r (5′-[…]) (SEQ ID NO:2), and sequenced with pA primer by GenomeExpress (Meylan, France). At least 400 bp were submitted to the NCBI database. Although some sequence comparisons authorized identification of isolates at the species level, only the genus level was retained in this study for homogeneity.
The isolates were identified by rrs-sequencing (Table 2). At D0, most of the NAHL-degrading isolates were identified as Delftia. However, at D14 and D28, the Agrobacterium isolates dominated in untreated batches, while they were not detected in the treated batches. In those, the more frequently counted bacteria were Delftia and Rhodococcus.

[7] = test system: bacterial consortia originating from rhizospheric soil; assay: C6-HSL inactivation by bacterial consortia enriched from rhizospheric soil; assay type: cell-based
[8] = test system: Erwinia carotovora subsp. atroseptica 6276; assay: Maceration assay on potato tubers (biocontrol activity of consortia); assay type: in vivo; conditions: potato tubers infected with mix of Erwinia carotovora 6276 and consortia
Text: FIG. 6: Maceration assay on potato tubers.
as §1

[9] = 6CL- and GCL-treated batches together, rrs sequence

O=C1CCCCCO1 [6CL, 6-caprolactone, reference compound]
speed of C6-HSL signal inactivation versus Mannitol consortia (bacterial consortia): inactivated more rapidly | speed of OC8-HSL signal inactivation versus Mannitol consortia (bacterial consortia): inactivated more rapidly | NAHL-degrading bacteria belonging to the Delftia genus (of 10 identified) [1, 9]: 9 | NAHL-degrading bacteria belonging to the Rhodococcus genus (of 10 identified) [1, 9]: one | percentage of NAHL-degrading bacteria in the nutritive solution ([1]; 14-day after treatment at 1 mL/L): 30±2% | percentage of NAHL-degrading bacteria in the nutritive solution ([1]; before the treatment): 10±2% | increase of the ratio of NAHL-degrading bacteria ([2]; 0.1 mL/L, 28 days after amendment, planted batches): not | Log CFU/gram of root (fresh weight) ([2]; D0 (before treatment)): 8.0 ± 7.6 Log CFU/gram of root (fresh we | NAHL degraders (%) ([2]; D0 (before treatment)): 8.9 ± 1.5 % | NAHL producers (%) ([2]; D0 (before treatment)): 7.8 ± 1.2% | rrs-identified NAHL-degraders: Delftia ([2]; D0, of 8 isolates): 7 | rrs-identified NAHL-degraders: Pseudomonas ([2]; D0, of 8 isolates): 1 | Log CFU/gram of root (fresh weight) ([2]; D28, 0.1 mL/L): 10.5 ± 10.1 Log CFU/gram of root (fresh we | NAHL degraders (%) ([2]; D28, 0.1 mL/L): 6.7 ± 1.7 % | NAHL producers (%) ([2]; D28, 0.1 mL/L): 5.6 ± 0.6% | identified genera of NAHL-degrading bacteria ([2]; D28, 0.1 mL/L): 3 | rrs-identified NAHL-degraders: Agrobacterium ([2]; D28, 0.1 mL/L, of 8 isolates): 4 | rrs-identified NAHL-degraders: Delftia ([2]; D28, 0.1 mL/L, of 8 isolates): 2 | rrs-identified NAHL-degraders: Pseudomonas ([2]; D28, 0.1 mL/L, of 8 isolates): 2 | NAHL-inactivating bacteria recovered from consortia [3]: recovered | NAHL-degrading isolates related to Chryseobacterium ([3]; 6CL and GCL consortia together): 10% | NAHL-degrading isolates related to Delftia ([3]; 6CL and GCL consortia together): 80 % of the identified strains | NAHL-degrading isolates related to Ralstonia ([3]; 6CL and GCL consortia together): 3% | NAHL-degrading isolates related to Rhodococcus ([3]; 6CL and GCL consortia together): 7% | NAHL-producing bacteria among isolates of the consortia ([3]; 280 isolates from 280 independent enrichments): none | sensitivity of young plants (young plants): sensitive | specific effect on the NAHL-degrading bacteria of the rhizosphere ([4]; 0.1 mL/L): no specific effect | proportion of NAHL-degrading bacteria ([4]; 0.1 mL/L, during all experiments): remained at a quite similar level | modification of the ratio of NAHL-producing bacteria ([4]; 6CL 0.1 mL/L, GCL 0.1 and 0.4 mL/L, D14 and D28): no repeatable modification | growth stimulation of NAHL-degrading bacteria after enrichment procedures [5]: stimulated the growth of NAHL-degrading bacteria | rrs-identified NAHL-degraders: Delftia [6]: 9 | rrs-identified NAHL-degraders: Others [6]: 2 | rrs-identified NAHL-degraders: Rhizobium [6]: 1 | rrs-identified NAHL-degraders: Rhodococcus [6]: 6 | activity of consortia towards C6-HSL (ranking) [7]: the most active | biocontrol activity of the consortia against E. carotovora 6276 [8]: did not
